Measured values from US7202239B2, “Cyclohexylphenyl carboxamides tocolytic oxytocin receptor antagonists” (Wyeth, priority 2001, dated 2007).

What was measured:
[1] = molecular target: human vasopressin V1a receptor subtype (Homo sapiens, UniProt P37288); experiment: Vasopressin binding in CHO cell membranes expressing human vasopressin V1a subtype receptors; conditions: [3H]Manning ligand; for IC50: value in parentheses; for inhibition at 0.1 µM: 100 nM
Excerpt: Vasopressin Binding in Chinese Hamster Ovary Cell Membranes Expressing Human Vasopressin V1a Subtype Receptors
Chinese hamster ovary cells (CHO cells) stably transfected with the human vasopressin V1a subtype receptors were either obtained from Biosignal Inc., 1744 rue Williams, Montreal, Quebec, Canada or obtained from M. Thibonnier, Case Western Reserve University School of Medicine, Cleveland, Ohio. A. Passaging and Amplification of Cells: CHO cells transfected with the human vasopressin V1a subtype receptors obtained from M. Thibonnier (pZeoSV vector) are allowed to grow to confluency (approx. >90%) in T-150 flasks under sterile conditions, in a cell culture medium of F-12 Nutrient Mixture (HAM) with L-glutamine (Gibco Cat. # 11765-054) containing 15 mM HEPES (Gibco Cat. 15630-080), 1% antibiotic/antimycotic (add 5 mL 100×, Gibco Cat. 15240-062 per 500 mL F-12), 250 μg/mL Zeocin (add 1.25 mL of 100 mg/mL Invitrogen R-250-01 per 500 mL F-12) and 10% Fetal Bovine Serum (Qualified, heat inactivated, Gibco Cat. # 16140-063). The medium is removed by aspiration and the cells are washed with 10 mL of Hank's Balanced Salt solution (Gibco Cat. # 14175-095). The salt solution is removed by aspiration and the cells are trypsinized with 5 mL of trypsin-EDTA (0.05% trypsin, 0.53 mM EDTA-4Na, Gibco Cat. # 25300-070) for 1 min. The trypsin is removed by aspiration and the cells dislodged by tapping. Cell Culture medium (eg, 30 mL for 1:30 split) is immediately added and mixed well to inactivate trypsin. 1 mL of detached cells is added to new culture flasks containing fresh cell culture medium (eg, into 25 mL per T-150 flask), and mixed gently. The cells are incubated at 37° C. in 5% CO2. The medium is changed at 3 to 4 days interval (or as appropriate). The cells grow to confluency (approx. >75%–95%) within 7–8 days. All steps are done under sterile conditions. B. Membrane Preparation: The cells are washed twice gently with Hank's Balanced Salt solution (e.g,. use 10 mL per T-150 flask). The excess is removed and the cells are bathed for 15–30 min. in an enzyme-free Cell Dissociation Buffer (e.g. use 8 mL Hank's Based, Gibco Cat. # 13150-016 per T-150 flask) until the cells are loosened. The contents are transferred to centrifuge tubes (50 mL) kept in an ice bath. All subsequent steps are done at 4° C. The tubes are centrifuged at 300×g for 15 min (1380 rpm on SORVAL, Model RT6000D, using rotor for the 50 mL tubes). The supernatant is discarded and the cells suspended in homogeneizing buffer(10 mM Tris-HCl containing 0.25 M sucrose and 1 mM EDTA, pH 7.4) ensuring that the volume of the buffer is about ten times the volume of the cell pellet. The cells are pooled into a centrifuge tube (50 mL) and homogenized with Polytron at setting 6 for 10 sec. The homogenate is transferred into a Potter-Elvjehm homogenizer and homogenized with 3 strokes. The homogenate is centrifuged at 1500× g for 10 min at 4° C. (3100 rpm using SORVAL, model RT6000D, using the rotor for 50 mL tubes). The pellet is discarded. The supernatant is centrifuged at 100,000×g for 60 min. at 4° C. (Beckman L8-80M ultracentrifuge; spin at 37,500 rpm with rotor type 70 Ti for 50 mL tubes; 38,000 rpm with type 80Ti for 15 mL tubes; or 35,800 rpm with rotor type 45Ti). The supernantant is discarded and the pellet suspended in 3 to 4 mL of Tris buffer (50 mM TRIS-HCl, pH 7.4). The protein content is estimated by the Bradford or Lowry method. The volume of the membrane suspension is adjusted with the membrane buffer (50 mM Tris-HCl containing 0.1% BSA and 0.1 mM PMSF) to give 3.0 mg/mL (or as appropriate) of protein. The membranes are aliquoted and stored at −70° C. C. […]

Sequence of human vasopressin V1a receptor subtype (P37288 whole entry): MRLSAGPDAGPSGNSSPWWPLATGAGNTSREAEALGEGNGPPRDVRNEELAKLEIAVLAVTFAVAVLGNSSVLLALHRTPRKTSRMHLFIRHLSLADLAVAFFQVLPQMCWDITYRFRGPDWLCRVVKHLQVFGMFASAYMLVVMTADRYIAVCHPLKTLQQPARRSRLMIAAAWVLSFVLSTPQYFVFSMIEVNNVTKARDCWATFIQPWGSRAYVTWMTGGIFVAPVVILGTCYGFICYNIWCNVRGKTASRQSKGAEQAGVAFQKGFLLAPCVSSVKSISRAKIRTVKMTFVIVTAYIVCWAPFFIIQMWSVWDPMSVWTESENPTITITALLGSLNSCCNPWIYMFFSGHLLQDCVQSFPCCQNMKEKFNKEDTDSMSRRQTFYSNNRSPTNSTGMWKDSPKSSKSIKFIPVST

For `NC(=O)c1ccc2n1Cc1ccccc1N(C(=O)c1ccc(C3CCCCC3)cc1)C2` [Example 16, 10-(4-Cyclohexyl-benzoyl)-10,11-dihydro-5H-pyrrolo[2,1-c][1,4]benzodiazepin-3-carboxamide], the melting point was 122 to 123 °C and the IC50 [1] was 377 nM.

Work on `Cc1ccccc1N1CCN(C(=O)c2ccc3n2Cc2ccccc2N(C(=O)c2ccc(C4CCCCC4)cc2)C3)CC1` [Example 27, [10-(4-Cyclohexyl-benzoyl)-10,11-dihydro-5H-pyrrolo[2,1-c][1,4]benzodiazepin-3-yl][4-(2-methylphenyl)-1-piperazinyl]-methanone] yielded a melting point of 141 to 143 °C and an inhibition at 0.1 µM [1] of 6%.

In the case of `COC(=O)c1ccc2c(c1)N(C(=O)c1ccc(C3CCCCC3)cc1)Cc1ccc(C(=O)N3CCN(C)CC3)n1C2.Cl` [Example 1, Methyl 10-(4-cyclohexylbenzoyl)-3-[(4-methyl-1-piperazinyl)carbonyl]-10,11-dihydro-5H-pyrrolo[2,1-c][1,4]benzodiazepine-8-carboxylate hydrochloride salt], the melting point is reported as 203 °C (dec.) and the inhibition at 0.1 µM [1] is reported as -7%.

`CC(=NNC(=O)c1ccc2n1Cc1ccccc1N(C(=O)c1ccc(C3CCCCC3)cc1)C2)N(C)C` [Example 9, N′-{[10-(4-Cyclohexyl-benzoyl)-10,11-dihydro-5H-pyrrolo[2,1-c][1,4]benzodiazepin-3-yl]carbonyl}-N,N-dimethylethanehydrazonamide] gave a melting point of 164 to 175 °C and an IC50 [1] of 146 nM.

For `O=C(c1ccc(C2CCCCC2)cc1)N1Cc2ccc(C(=O)C(Cl)(Cl)Cl)n2Cc2ccccc21` [Example 7, 2,2,2-Trichloro-1-[10-(4-cyclohexyl-benzoyl)-10,11-dihydro-5H-pyrrolo[2,1-c][1,4]benzodiazepin-3-yl]-1-ethanone], the melting point was 172 to 174 °C and the inhibition at 0.1 µM [1] was 4%.

`CN(C)C=NNC(=O)c1ccc2n1Cc1ccccc1N(C(=O)c1ccc(C3CCCCC3)cc1)C2` [Example 10, N′-{[10-(4-Cyclohexyl-benzoyl)-10,11-dihydro-5H-pyrrolo[2,1-c][1.4]benzodiazepin-3-yl]carbonyl}-N,N-dimethylhydrazonoformamide] gave a melting point of 167 to 190 °C and an IC50 [1] of 366 nM.

With `CN(C)/C=C/C(=O)c1ccc2n1Cc1ccccc1N(C(=O)c1ccc(C3CCCCC3)cc1)C2` [Example 20, (E)-1-[10-(4-Cyclohexyl-benzoyl)-10,11-dihydro-5H-pyrrolo[2,1-c][1,4]benzodiazepin-3-yl]-3-(dimethylamino)-2-propen-1-one] the melting point was 237 to 240 °C and the inhibition at 0.1 µM [1] was 21%.

In the case of `C/C(=N\C(=O)c1ccc2n1Cc1ccccc1N(C(=O)c1ccc(C3CCCCC3)cc1)C2)N(C)C` [Example 18], the melting point is reported as 128 to 131 °C and the IC50 [1] is reported as 87.5 nM.

With `CN1CCN(C(=O)c2ccc3n2Cc2ccc(C(=O)O)cc2N(C(=O)c2ccc(C4CCCCC4)cc2)C3)CC1` [Example 3, 10-(4-Cyclohexyl-benzoyl)-3-[(4-methyl-1-piperazinyl)carbonyl]-10,11-dihydro-5H-pyrrolo[2,1-c][1,4]benzodiazepine-8-carboxylic acid] the melting point was 195 to 210 °C and the inhibition at 0.1 µM [1] was -19%.

`CN1CCCN(C(=O)c2ccc3n2Cc2ccccc2N(C(=O)c2ccc(C4CCCCC4)cc2)C3)CC1` [Example 30, [10-(4-Cyclohexyl-benzoyl)-10,11-dihydro-5H-pyrrolo[2,1-c][1,4]benzodiazepin-3-yl](4-methyl-[1,4]-diazepan-1-yl)-methanone] showed a melting point of 133 to 136 °C and an inhibition at 0.1 µM [1] of 49%.
